Results published in ChEMBL document CHEMBL4420071, “Method for treating skin with retinoids and retinoid boosters” (2013).

Tests used:
[1] = species: Homo sapiens; test: Inhibition of transglutaminase in human keratinocytes in presence of retinal relative to retinal alone; format: cell-based; settings: concentration not given here
[2] = target: T1, Diacylglycerol O-acyltransferase 1 (Bos taurus) (UniProt Q8MK44); settings: at 100 µM;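 further: ARAT activity in bovine RPE microsomes with retinol as substrate and dilauroyl phosphatidylcholine present, 5 min incubation, HPLC readout, inhibition expressed versus control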
T1 sequence (whole entry): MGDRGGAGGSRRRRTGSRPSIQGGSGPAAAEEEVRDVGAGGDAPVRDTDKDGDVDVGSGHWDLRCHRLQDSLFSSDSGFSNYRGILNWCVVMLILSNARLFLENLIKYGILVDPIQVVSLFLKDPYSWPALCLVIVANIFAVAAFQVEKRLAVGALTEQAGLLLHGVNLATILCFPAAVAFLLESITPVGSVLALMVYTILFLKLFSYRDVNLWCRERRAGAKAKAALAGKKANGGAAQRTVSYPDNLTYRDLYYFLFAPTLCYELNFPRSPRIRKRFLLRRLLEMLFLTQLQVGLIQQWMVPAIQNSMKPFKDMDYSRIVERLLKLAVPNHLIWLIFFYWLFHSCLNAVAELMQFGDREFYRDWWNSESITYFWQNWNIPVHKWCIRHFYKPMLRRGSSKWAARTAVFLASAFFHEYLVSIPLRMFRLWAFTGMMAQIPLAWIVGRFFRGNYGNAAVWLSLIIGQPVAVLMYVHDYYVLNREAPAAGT
Description: Inhibition of ARAT in bovine RPE microsomes at 100 uM using retinol substrate in presence of dilauroyl-phosphatidyl choline incubated for 5 mins by HPLC analysis relative to control

[3] = target: T2, Lecithin retinol acyltransferase (Bos taurus) (UniProt Q9BGL2); settings: at 100 µM;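 further: bovine retinal pigment epithelium microsomes given retinol plus palmitoyl-CoA, 5 min reaction, ester formation read by HPLC, inhibition expressed versus untreated control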
T2 sequence (whole entry): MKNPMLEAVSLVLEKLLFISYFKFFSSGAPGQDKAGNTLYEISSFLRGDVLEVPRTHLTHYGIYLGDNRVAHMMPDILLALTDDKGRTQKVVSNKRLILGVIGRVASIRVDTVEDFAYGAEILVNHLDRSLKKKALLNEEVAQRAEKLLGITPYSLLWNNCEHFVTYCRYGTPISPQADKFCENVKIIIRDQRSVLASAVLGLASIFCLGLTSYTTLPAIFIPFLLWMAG
Description: Inhibition of LRAT in bovine RPE microsomes at 100 uM using retinol substrate in presence of Palmitoyl-CoA incubated for 5 mins by HPLC analysis relative to control

[4] = species: Homo sapiens; test: Inhibition of transglutaminase in human keratinocytes assessed as mean transglutaminase activity level at 4.39 10^-8M in presence of 10 uM retinal relative to retinal alone; format: cell-based; set-up: scale not given: the % may be the effect or the level left
[5] = species: Homo sapiens; test: Inhibition of transglutaminase in human keratinocytes assessed as mean transglutaminase activity level at 1.78 10^-5M in presence of 10 uM retinal relative to retinal alone; format: cell-based; set-up: scale not given: the % may be the effect or the level left
[6] = species: Homo sapiens; test: Inhibition of transglutaminase in human keratinocytes assessed as mean transglutaminase activity level at 6.58 10^-7M in presence of 10 uM retinal relative to retinal alone; format: cell-based; set-up: scale not given: the % may be the effect or the level left
[7] = species: Homo sapiens; test: Inhibition of transglutaminase in human keratinocytes assessed as mean transglutaminase activity level at 1.6 10^-4M in presence of 10 uM retinal relative to retinal alone; format: cell-based; set-up: scale not given: the % may be the effect or the level left
[8] = species: Homo sapiens; test: Inhibition of transglutaminase in human keratinocytes assessed as mean transglutaminase activity level at 1.98 10^-6M in presence of 10 uM retinal relative to retinal alone; format: cell-based; set-up: scale not given: the % may be the effect or the level left
[9] = species: Homo sapiens; test: Inhibition of transglutaminase in human keratinocytes assessed as mean transglutaminase activity level at 5.93 10^-6M in presence of 10 uM retinal relative to retinal alone; format: cell-based; set-up: scale not given: the % may be the effect or the level left
[10] = species: Homo sapiens; test: Inhibition of transglutaminase in human keratinocytes assessed as mean transglutaminase activity level at 2.19 10^-9M in presence of 10 uM retinal relative to retinal alone; format: cell-based; set-up: scale not given: the % may be the effect or the level left
[11] = species: Homo sapiens; test: Inhibition of transglutaminase in human keratinocytes assessed as mean transglutaminase activity level at 1.79 10^-9M in presence of 10 uM retinal relative to retinal alone; format: cell-based; set-up: scale not given: the % may be the effect or the level left
[12] = species: Homo sapiens; test: Inhibition of transglutaminase in human keratinocytes assessed as mean transglutaminase activity level at 5.33 10^-5M in presence of 10 uM retinal relative to retinal alone; format: cell-based; set-up: scale not given: the % may be the effect or the level left
[13] = species: Homo sapiens; test: Inhibition of transglutaminase in human keratinocytes assessed as mean transglutaminase activity level at 8.78 10^-9M in presence of 10 uM retinal relative to retinal alone; format: cell-based; set-up: scale not given: the % may be the effect or the level left
[14] = species: Homo sapiens; test: Inhibition of transglutaminase in human keratinocytes assessed as mean transglutaminase activity level at 9.0 10^-3M in presence of 10 uM retinal relative to retinal alone; format: cell-based; set-up: scale not given: the % may be the effect or the level left
[15] = species: Homo sapiens; test: Inhibition of transglutaminase in human keratinocytes assessed as mean transglutaminase activity level at 1.1 10^-4M in presence of 10 uM retinal relative to retinal alone; format: cell-based; set-up: scale not given: the % may be the effect or the level left
[16] = species: Homo sapiens; test: Inhibition of transglutaminase in human keratinocytes assessed as mean transglutaminase activity level at 8.2 10^-6M in presence of 10 uM retinal relative to retinal alone; format: cell-based; set-up: scale not given: the % may be the effect or the level left
[17] = species: Homo sapiens; test: Inhibition of transglutaminase in human keratinocytes assessed as mean transglutaminase activity level at 1.23 10^-5M in presence of 10 uM retinal relative to retinal alone; format: cell-based; set-up: scale not given: the % may be the effect or the level left
[18] = species: Rattus norvegicus; test: Inhibition of retinal reductase in Sprague-Dawley rat liver microsomes at 100 uM using all-trans retinaldehyde and NADPH by HPLC analysis relative to control
[19] = species: Homo sapiens; test: Inhibition of transglutaminase in human keratinocytes assessed as mean transglutaminase activity level at 3.73 10^-4M in presence of 10 uM retinal relative to retinal alone; format: cell-based; set-up: scale not given: the % may be the effect or the level left
[20] = species: Homo sapiens; test: Inhibition of transglutaminase in human keratinocytes assessed as mean transglutaminase activity level at 1.0 10^-3M in presence of 10 uM retinal relative to retinal alone; format: cell-based; set-up: scale not given: the % may be the effect or the level left
[21] = species: Homo sapiens
Description: Inhibition of transglutaminase in human keratinocytes in presence of 10 uM retinal relative to retinal alone

[22] = species: Homo sapiens; test: Inhibition of transglutaminase in human keratinocytes assessed as mean transglutaminase activity level at 3.29 10^-7M in presence of 10 uM retinal relative to retinal alone; format: cell-based; set-up: scale not given: the % may be the effect or the level left
[23] = species: Homo sapiens; test: Inhibition of transglutaminase in human keratinocytes assessed as mean transglutaminase activity level at 3.0 10^-3M in presence of 10 uM retinal relative to retinal alone; format: cell-based; set-up: scale not given: the % may be the effect or the level left
[24] = species: Homo sapiens; test: Inhibition of transglutaminase in human keratinocytes assessed as mean transglutaminase activity level at 4.1 10^-5M in presence of 10 uM retinal relative to retinal alone; format: cell-based; set-up: scale not given: the % may be the effect or the level left
[25] = species: Homo sapiens; test: Inhibition of transglutaminase in human keratinocytes assessed as mean transglutaminase activity level at 1.65 10^-7M in presence of 10 uM retinal relative to retinal alone; format: cell-based; set-up: scale not given: the % may be the effect or the level left

## O=C(NCNC(=O)NC1C(=O)NC(=O)N1CO)NC1C(=O)NC(=O)N1CO (stereo not drawn)
[1]
  inhibition: 35%

## CCCCCCCCCCCC(=O)NCCO
[1]
  inhibition: 11%
[2]
  inhibition: 13%
[3]
  inhibition: 34%

## CCCCCCCC(=O)OC[C@H](COP(=O)([O-])OCC[N+](C)(C)C)OC(=O)CCCCCCC
[4]
  Activity: 127%
[5]
  Activity: 104%
[6]
  Activity: 92.8%
[7]
  Activity: 58.1%
[8]
  Activity: 110%
[9]
  Activity: 129%
[10]
  Activity: 88.6%
[11]
  Activity: 82%
[12]
  Activity: 95.4%
[13]
  Activity: 119%

## CCCCC/C=C\C/C=C\CCCCCCCC(=O)O
[14]
  Activity: -6%
[15]
  Activity: 4.4%
[16]
  Activity: 146%
[17]
  Activity: 62.6%
[18]
  inhibition: 62%
[19]
  Activity: 79.2%
[20]
  Activity: -16.4%
[21]
  IC20: 8.95 ×10⁻⁵ M
[22]
  Activity: 60.2%
[23]
  Activity: 0.1%
[24]
  Activity: 76.8%
[25]
  Activity: 106%

## CC/C=C\C/C=C\C/C=C\CCCCCCCC(=O)O
[14]
  Activity: -11%
[15]
  Activity: -23%
[16]
  Activity: 119%
[17]
  Activity: 94.9%
[18]
  inhibition: 54%
[19]
  Activity: 68%
[20]
  Activity: -7.5%
[21]
  IC20: 1.21 ×10⁻⁴ M
[22]
  Activity: 98%
[23]
  Activity: -5.7%
[24]
  Activity: 65.9%
[25]
  Activity: 77%
